The target in data set [1] is T1, IDO1 (Homo sapiens, UniProt P14902).
T1 construct: made in house
Description: Enzyme-based IDO1 activity assay. Format: biochemical. Particulars: purified human IDO1 enzyme; read-out: Enzymatic assay IC50 (hIDO1).

Data set [2] in a line: Water solubility evaluation (Avdeef–Bucher potentiometric titration). Format: physicochemical. Particulars: thermodynamic from solid. How it is done:
The aqueous solubility was determined on a Gemini Profiler instrument (pION) by the “goldstandard” Avdeef–Bucher potentiometric titration method[46]^,[47].

The target of data set [3] is T2, ferric IDO1 (Homo sapiens, UniProt P14902).
T2 construct: made in house
T2 sequence (P14902 whole entry): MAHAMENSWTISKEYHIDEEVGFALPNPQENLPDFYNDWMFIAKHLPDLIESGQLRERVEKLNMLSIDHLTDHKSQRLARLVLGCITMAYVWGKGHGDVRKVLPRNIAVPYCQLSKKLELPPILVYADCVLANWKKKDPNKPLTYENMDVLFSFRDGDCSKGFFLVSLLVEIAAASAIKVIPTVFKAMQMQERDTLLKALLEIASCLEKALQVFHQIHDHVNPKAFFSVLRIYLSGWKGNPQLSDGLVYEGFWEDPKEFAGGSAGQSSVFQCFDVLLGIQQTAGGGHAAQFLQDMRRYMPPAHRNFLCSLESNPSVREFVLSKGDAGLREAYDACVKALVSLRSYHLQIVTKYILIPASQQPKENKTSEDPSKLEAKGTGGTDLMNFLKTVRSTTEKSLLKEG
In words: Measurement of IDO1 absorbance spectra (UV–visible). The class given is binding. The following applies: 20 µM compound, 5 µM IDO1, phosphate buffer pH 6.5; 406 nm in absence of compound. Here is the method:
Absorbance spectra (250–480 nm) were measured immediately after addition of compound LBJ-10 (20 µM in 0.5% DMSO) to IDO1 (5 µM) in phosphate buffer (pH 6.5) using a Tecan Safire2 microplate reader.
A UV–visible spectra study was performed to evaluate the binding of the representative compound LBJ-10 (Figure 11). The absorption spectrum of the haeme group is highly sensitive to the changes in the polarity of haeme surrounding upon the ligand or substrate binding, leading to the change of spectra properties of the haeme. The UV–visible spectra of ferric IDO1 was measured in the presence and absence of compound LBJ-10.

For data set [4], the target named is T1, IDO1. Description: Determination of the inhibition type (rate V against enzyme amount E). The class given is biochemical. Particulars: 1 µM inhibitor, 50 µM L-tryptophan. How it is done: The standard assay mixture (1 ml) contained 50 mM potassium phosphate buffer (pH = 6.5), 25 mM neutralised ascorbic acid, 10 µM methylene blue, 100 µg/mL catalase, 50 µM L-Trp, DMSO (0.5%), and eight different concentrations of IDO1. In addition, 1 µM LBJ-10 solution was added into the mixture. The reaction, at 37 °C, was started by the addition of the substrate and terminated after 60 min by adding 200 µL of 30% (w/v) trichloroacetic acid and further incubated at 50 °C for 30 min to hydrolyse N-formylkynurenine to produce kynurenine. After centrifugation at 12,000 rpm for 15 min at 20 °C, kynurenine in the supernatant (1 mL) was measured by a HPLC system with a reversed phase column (4.6 mm × 15 cm) of GL Sciences Inc. The mobile phase was 10 mM ammonium acetate containing 10% (w/v) methanol, and kynurenine was detected by absorbance at 360 nm. All determinations were carried out in duplicate. The data presented are average values. Based on the results of the activity assay, a function of rate ([V]) against enzyme amount ([E]) was proposed.
We also carried the additional experiment to determine the reversibility of compound LBJ-10. Detailed kinetics analysis was performed on LBJ-10 based on plotting a function of the rate (V) against the enzyme amount ([E]) (Figure 12(A))[58]^,[59]. […]

Converted amounts (≈) assume the structure as drawn.

T1 sequence (P14902 whole entry): as above

A word on the IC50: it is the concentration that inhibits the measured activity by half. As a reminder, the solubility is how much of the substance goes into solution per volume. Low values mean a poorly soluble substance, high ones a readily soluble substance. One may read the melting point as the temperature of the solid-liquid transition. `N#Cc1cccnc1SCC(=O)Nc1ccc(F)cc1` [LBJ-03, 2-((3-Cyanopyridin-2-yl)thio)-N-(4-fluorophenyl)acetamide] came in with a melting point of 198 to 201 °C. The IC50 in data set [1] worked out at 9.14 ± 0.38 µM. The solubility in data set [2] stood at 0.075 mg/mL (≈ 261 µM).
As to `N#Cc1ccc(C(F)(F)F)nc1SCC(=O)Nc1ccc(F)c(Cl)c1` [LBJ-10, N-(3-chloro-4-fluorophenyl)-2-((3-cyano-6-(trifluoromethyl)pyridin-2-yl)thio) acetamide], the 50% inhibitory concentration (IC50) in data set [1] is 0.84 ± 0.33 µM. For the same molecule, in data set [3], the “Soret peak of ferric IDO1 in the presence of compound” value turned out to be 416 nm. Also, the “Inhibition type (reversibility)” value in data set [4] was “reversible inhibitor”.

For the origin of these results see PMC6327983, “Discovery of cyanopyridine scaffold as novel indoleamine-2,3-dioxygenase 1 (IDO1) inhibitors through virtual screening and preliminary hit optimisation” (Journal of Enzyme Inhibition and Medicinal Chemistry, 2019).
